Assay results reported in patent publication US8735414B2 (priority 2009, dated 2014).

Test system: bicistronic HCV replicon (replicon RNA, GenBank Accession No. AJ242654)
Test: HCV Replicon Assay
Assay type: cell-based
Conditions: Hepatitis C virus, 72 h, read-out: Replicon IC50
Compound Cc1ccc2c(c1)c(C#N)c(-c1ccc(S(=O)(=O)N[C@@H](C)C3CC3)cn1)n2C1CCC1 [compound 201, 6-(3-cyano-1-cyclobutyl-5-methyl-1H-indol-2-yl)-N-[(1S)-1-cyclopropylethyl]pyridine-3-sulfonamide] has an IC50 of under 500 nM. With C[C@@H](NS(=O)(=O)c1ccc(-c2c(C#N)c3cc(Cl)ccc3n2C2CCCCC2)nc1)C(F)(F)F [compound 461, 6-(5-chloro-3-cyano-1-cyclohexyl-1H-indol-2-yl)-N-[(2R)-1,1,1-trifluoropropan-2-yl]pyridine-3-sulfonamide] the IC50 was under 500 nM. CCc1cc(OC)c2c(C#N)c(-c3ccc(S(=O)(=O)N[C@@H](C)C(F)(F)F)cn3)n(C3CCC3)c2c1 [compound 858, 6-(3-cyano-1-cyclobutyl-6-ethyl-4-methoxy-1H-indol-2-yl)-N-[(2S)-1,1,1-trifluoropropan-2-yl]pyridine-3-sulfonamide] gave an IC50 of 500 to 2000 nM.

Test system: not given
Test: not given
Conditions: not given
Compound Cc1ccc2c(c1)c(C#N)c(-c1ccc(S(=O)(=O)N[C@@H](C)C3CC3)cn1)n2C1CCC1 [compound 201, 6-(3-cyano-1-cyclobutyl-5-methyl-1H-indol-2-yl)-N-[(1S)-1-cyclopropylethyl]pyridine-3-sulfonamide] has a melting point of 173 to 178 °C. C[C@@H](NS(=O)(=O)c1ccc(-c2c(C#N)c3cc(Cl)ccc3n2C2CCCCC2)nc1)C(F)(F)F [compound 461, 6-(5-chloro-3-cyano-1-cyclohexyl-1H-indol-2-yl)-N-[(2R)-1,1,1-trifluoropropan-2-yl]pyridine-3-sulfonamide] showed a melting point of 226 to 227 °C. CCc1cc(OC)c2c(C#N)c(-c3ccc(S(=O)(=O)N[C@@H](C)C(F)(F)F)cn3)n(C3CCC3)c2c1 [compound 858, 6-(3-cyano-1-cyclobutyl-6-ethyl-4-methoxy-1H-indol-2-yl)-N-[(2S)-1,1,1-trifluoropropan-2-yl]pyridine-3-sulfonamide] showed a melting point of 187 to 188 °C. Work on C[C@@H](NS(=O)(=O)c1ccc(-c2c(C#N)c3ccc(C4CC4)cc3n2C2CCC2)nc1)C(F)(F)F [compound 212, 6-(3-cyano-1-cyclobutyl-6-cyclopropyl-1H-indol-2-yl)-N-[(2R)-1,1,1-trifluoropropan-2-yl]pyridine-3-sulfonamide] yielded a melting point of 192 to 196 °C. With CC(C)NS(=O)(=O)c1cnc(-c2c(C#N)c3ccc(OC(F)F)cc3n2CC2CC2)nc1 [compound 170, 2-[3-cyano-1-(cyclopropylmethyl)-6-(difluoromethoxy)-1H-indol-2-yl]-N-(propan-2-yl)pyrimidine-5-sulfonamide] the melting point was 182 to 184 °C. In the case of CC(C)(C)NS(=O)(=O)c1ccc(-c2c(C#N)c3ccc(OC(F)F)cc3n2C2CCC2)nc1 [compound 543, N-tert-butyl-6-[3-cyano-1-cyclobutyl-6-(difluoromethoxy)-1H-indol-2-yl]pyridine-3-sulfonamide], the melting point is reported as 178 to 180 °C. In the case of CC(C)NS(=O)(=O)c1ccc(-c2c(C#N)c3cc(OC(F)(F)F)ccc3n2C2CCC2)nc1 [compound 23, 6-[3-cyano-1-cyclobutyl-5-(trifluoromethoxy)-1H-indol-2-yl]-N-(propan-2-yl)pyridine-3-sulfonamide], the melting point is reported as 174 to 176 °C. In the case of CC(C)NS(=O)(=O)c1ccc(-c2c(C#N)c3ccc(SC(C)C)cc3n2C2CCC2)nc1 [compound 16, 6-[3-cyano-1-cyclobutyl-6-(propan-2-ylsulfanyl)-1H-indol-2-yl]-N-(propan-2-yl)pyridine-3-sulfonamide], the melting point is reported as 129 to 131 °C. With CC(C)NS(=O)(=O)c1ccc(-c2c(C#N)c3cc(OC(F)F)ccc3n2C2CCC2)nc1 [compound 19, 6-[3-cyano-1-cyclobutyl-5-(difluoromethoxy)-1H-indol-2-yl]-N-(propan-2-yl)pyridine-3-sulfonamide] the melting point was 148 to 153 °C. Compound C[C@H](NS(=O)(=O)c1ccc(-c2c(C(N)=O)c3cc(F)c(C4CC4)cc3n2C2CCCC2)nc1)C(F)(F)F [compound 842, 1-cyclopentyl-6-cyclopropyl-5-fluoro-2-(5-{[(2S)-1,1,1-trifluoropropan-2-yl]sulfamoyl}pyridin-2-yl)-1H-indole-3-carboxamide] has a melting point of 255 to 257 °C. N#Cc1c(-c2ccc(S(N)(=O)=O)cn2)n(C2CCC2)c2cc(OC(F)F)ccc12 [compound 552, 6-[3-cyano-1-cyclobutyl-6-(difluoromethoxy)-1H-indol-2-yl]pyridine-3-sulfonamide] gave a melting point of 204 to 205 °C. Work on CC(C)NS(=O)(=O)c1ccc(-c2c(C#N)c3ccc(C4CC4)cc3n2C2CCC2)nc1 [compound 7, 6-(3-cyano-1-cyclobutyl-6-cyclopropyl-1H-indol-2-yl)-N-(propan-2-yl)pyridine-3-sulfonamide] yielded a melting point of 174 to 176 °C. In the case of CC(C)NS(=O)(=O)c1ccc(-c2c(C#N)c3ccc(OC(F)F)cc3n2CC2CC2)cn1 [compound 40, 5-[3-cyano-1-(cyclopropylmethyl)-6-(difluoromethoxy)-1H-indol-2-yl]-N-(propan-2-yl)pyridine-2-sulfonamide], the melting point is reported as 186 to 188 °C. C[C@H](NS(=O)(=O)c1ccc(-c2c(C#N)c3ccc(C4CC4)cc3n2C2CCC2)nc1)C(F)(F)F [compound 369, 6-(3-cyano-1-cyclobutyl-6-cyclopropyl-1H-indol-2-yl)-N-[(2S)-1,1,1-trifluoropropan-2-yl]pyridine-3-sulfonamide] showed a melting point of 191 to 197 °C. Compound N#Cc1c(-c2ccc(S(=O)(=O)NC(CF)CF)cn2)n(C2CCC2)c2cc(OC(F)F)ccc12 [compound 31, 6-[3-cyano-1-cyclobutyl-6-(difluoromethoxy)-1H-indol-2-yl]-N-(1,3-difluoropropan-2-yl)pyridine-3-sulfonamide] has a melting point of 159 to 161 °C. Work on CC(C#N)NS(=O)(=O)c1ccc(-c2c(C#N)c3ccc(OC(F)F)cc3n2C2CCC2)nc1 (centres unmarked) [compound 301, 6-[3-cyano-1-cyclobutyl-6-(difluoromethoxy)-1H-indol-2-yl]-N-(1-cyanoethyl)pyridine-3-sulfonamide] yielded a melting point of 188 to 190 °C. Compound CC(C)(NS(=O)(=O)c1ccc(-c2c(C#N)c3ccc(OC(F)F)cc3n2C2CCC2)nc1)C(F)(F)F [compound 479, 6-[3-cyano-1-cyclobutyl-6-(difluoromethoxy)-1H-indol-2-yl]-N-(1,1,1-trifluoro-2-methylpropan-2-yl)pyridine-3-sulfonamide] has a melting point of 165 to 171 °C. CC(C)NS(=O)(=O)c1ccc(-c2c(C#N)c3ccc(C4CCC4)cc3n2C2CCC2)nc1 [compound 266, 6-(3-cyano-1,6-dicyclobutyl-1H-indol-2-yl)-N-(propan-2-yl)pyridine-3-sulfonamide] gave a melting point of 178 to 180 °C. With N#Cc1c(-c2ccc(S(=O)(=O)NC3(C(F)(F)F)CC3)cn2)n(C2CCC2)c2cc(OC(F)F)ccc12 [compound 93, 6-[3-cyano-1-cyclobutyl-6-(difluoromethoxy)-1H-indol-2-yl]-N-[1-(trifluoromethyl)cyclopropyl]pyridine-3-sulfonamide] the melting point was 182 to 187 °C. N#Cc1c(-c2ccc(S(=O)(=O)NC3(C(F)(F)F)CC3)cn2)n(C2CCC2)c2cc(C3CC3)ccc12 [compound 153, 6-(3-cyano-1-cyclobutyl-6-cyclopropyl-1H-indol-2-yl)-N-[1-(trifluoromethyl)cyclopropyl]pyridine-3-sulfonamide] gave a melting point of 166 to 171 °C. For CC(C)(CF)NS(=O)(=O)c1ccc(-c2c(C#N)c3ccc(OC(F)F)cc3n2C2CCC2)nc1 [compound 77, 6-[3-cyano-1-cyclobutyl-6-(difluoromethoxy)-1H-indol-2-yl]-N-(1-fluoro-2-methylpropan-2-yl)pyridine-3-sulfonamide], the melting point was 171 to 178 °C. For CC(C)NS(=O)(=O)c1ccc(-c2c(C#N)c3ccc(OC(F)F)cc3n2C2CCC2)nc1 [compound 51, 6-[3-cyano-1-cyclobutyl-6-(difluoromethoxy)-1H-indol-2-yl]-N-(propan-2-yl)pyridine-3-sulfonamide], the melting point was 158 to 159 °C. With CCCn1c(-c2ccc(S(=O)(=O)NC(C)C)cn2)c(C#N)c2ccc(OC(F)F)cc21 [compound 3, 6-[3-cyano-6-(difluoromethoxy)-1-propyl-1H-indol-2-yl]-N-(propan-2-yl)pyridine-3-sulfonamide] the melting point was 166 to 170 °C.
